# Measured values taken from US20210253511A1, “COMPOUNDS AND USES FOR THE TREATMENT AND PREVENTION OF DISEASES AND CONDITIONS ASSOCIATE WITH OR AGGREVATED BY IMPARED MITOPHAGY” (Yissum Research Development Company of The Hebrew …, priority 2018, published 2021).
# Tests used:
# [1] = system: C. elegans; experiment: Off-food speed measurements; format: in vivo; conditions: 4 mM, aged worms, untreated worms declined significantly
# Procedure: Bar graphs presenting the speed of 3 and 11 days post L1 wild-type worms that were treated with 4 mM 1,8-Diaminooctane or with vehicle as a control. The measurements of speed were performed in the absence of food (n=6 assays performed over at least 3 days). Asterisks indicate significance for comparisons with control worms (day 11). **p<0.01, two-way ANOVA with Bonferroni post-test. NS, Not significant. Error bars indicate SEM.
# For speed-imaging experiments, low-peptone NGM agar plates were used. These plates were prepared as described above apart from the of Bacto peptone concentration that was decreased to 0.13 g/L and the use of 60 mm petri dished (instead of 35 mm dishes). […] In brief, eight synchronized worms (age 3 or 11 post-L1) were put (for 30 min) in a drop of M9 buffer to clean them from external and internal bacteria. During the 30 min the M9 buffer was replaced twice. After 30 min, the worms were placed at the center of a 17 mm diameter copper ring on an unseeded low-peptone plate. Recording was started after 5 min acclimation time. The worms were recorded for 10 min at 0.5 frames/s, using a Q-Imaging MicroPublisher 5.0 RTV Microscope Camera mounted onto an Olympus SZ61 stereo microscope. A custom-written MATLAB software was used to analyze the speed. For each treatment, at least 48 animals in 6 independent assays were measured.
# [2] = system: mitophagy in C. elegans muscles; experiment: Mitophagy imaging with Mito-Rosella sensor; format: in vivo; conditions: 1 mM; L4 Rosella worms; 21° C.
# Text: FIGS. 8A-8F. (FIG. 8A) is a schematic illustration of the Mito-Rosella sensor function. The Mito-Rosella sensor contains an N-terminal mitochondrial targeting signal, a pH-stable red fluorescent protein and a C-terminal pH-sensitive green fluorescent protein. In non-acidic environment the green to red fluorescent ratio is 0.6-0.8. However, in the autolysosome, where the pH is low, the green fluorescent is quenched and the green to red ratio is decreased to 0.2-0.5. By measuring the mitochondria red and green fluorescence, it was possible to monitor mitophagy in live worms. […] A bar graph presenting the results of mitophagy imaging experiments. L4 larval worms were treated with either 8 mM paraquat or 1 mM 1,8-Diaminooctane for 16 h, at 21° C. Control worms were treatment with similar volume of distilled water and incubated under similar conditions. Asterisks indicate significance for comparisons with control worms. […]
# The Mito-Rosella sensor is composed of an N-terminal mitochondrial targeting sequence followed by a pH-insensitive red fluorescent protein (DsRed.T3) and a pH-sensitive green fluorescent protein (pHluorin) (FIG. 8A). In intact mitochondria the green to red fluorescence ratio is high (between 0.6-0.8). However, upon acidification in autolysosome (where mitochondria are degraded) the green fluorescence is quenched and thus the ration is decreased to 0.2-0.5.
smiles,measurement,setting,value
"NCCCCCCCCN [1,8-Diaminooctane]","speed (off food), day 11 post L1",[1],remained high and was similar to day 3
same,"speed (off food), day 11 post L1","[1]; listed as 1,8-diaminooctane",no change in the speed
same,mitophagy response (Mito-Rosella green to red fluorescence ratio),[2],strong mitophagy response
